According to ChEMBL document CHEMBL1201862, “PubChem BioAssay data set” (2004):
Active and inactive are the calls of the source.

Tests used:
[1] = bead-based luminescence quenchers, dual-tagged ARNT – biochemical, AlphaScreen, cherry-pick, artefact control for ARNT-TACC3 interaction inhibitor project, dose response (AID 651705); type: functional;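 note: AlphaScreen bead proximity signal that flags compounds interfering with the detection technology; potency reflects signal decrease which marks the compound as an assay artifact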
[2] = biological target: Dual specificity protein phosphatase 3 (Homo sapiens, UniProt P51452); assay: VHR phosphatase inhibition, dose response, selectivity assay for STEP inhibitor project, biochemical (AID 602374); type: functional; conditions: read-out: IC50_Mean
Sequence of Dual specificity protein phosphatase 3 (P51452 whole entry): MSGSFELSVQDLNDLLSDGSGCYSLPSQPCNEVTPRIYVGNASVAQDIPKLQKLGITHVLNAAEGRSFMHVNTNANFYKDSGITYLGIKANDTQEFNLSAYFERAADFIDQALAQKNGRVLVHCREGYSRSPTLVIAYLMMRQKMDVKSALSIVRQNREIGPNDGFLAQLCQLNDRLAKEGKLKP

[3] = biological target: T1, Tyrosine-protein phosphatase non-receptor type 5 (Homo sapiens, UniProt P54829); assay: PTPN5 enzyme inhibition – biochemical, fluorescence intensity, uHTS hits, confirmation (AID 602372); type: functional; conditions: read-out: IC50_Mean
T1 sequence (P54829 whole entry): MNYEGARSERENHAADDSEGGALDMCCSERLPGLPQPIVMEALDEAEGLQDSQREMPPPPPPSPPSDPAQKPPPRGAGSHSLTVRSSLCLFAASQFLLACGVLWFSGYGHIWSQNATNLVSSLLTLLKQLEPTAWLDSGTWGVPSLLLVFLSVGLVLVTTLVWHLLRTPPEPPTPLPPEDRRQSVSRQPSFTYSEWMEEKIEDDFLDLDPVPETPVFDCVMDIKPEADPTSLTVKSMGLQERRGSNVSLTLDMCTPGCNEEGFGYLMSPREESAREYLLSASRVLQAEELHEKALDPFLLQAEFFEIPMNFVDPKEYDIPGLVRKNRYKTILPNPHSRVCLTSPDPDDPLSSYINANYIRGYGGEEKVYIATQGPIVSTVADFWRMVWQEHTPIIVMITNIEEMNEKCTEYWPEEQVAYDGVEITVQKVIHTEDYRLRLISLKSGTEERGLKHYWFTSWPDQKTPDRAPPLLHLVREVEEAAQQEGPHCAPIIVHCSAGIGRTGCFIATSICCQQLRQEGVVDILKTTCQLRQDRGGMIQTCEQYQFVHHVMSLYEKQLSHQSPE

[4] = biological target: T2, Tyrosine-protein phosphatase non-receptor type 11 (Homo sapiens, UniProt Q06124); assay: PTPN11 enzyme inhibitors – biochemical, selectivity assay for STEP inhibitor project, dose response (AID 602367); type: functional; conditions: read-out: IC50_Mean
T2 sequence (Q06124 whole entry): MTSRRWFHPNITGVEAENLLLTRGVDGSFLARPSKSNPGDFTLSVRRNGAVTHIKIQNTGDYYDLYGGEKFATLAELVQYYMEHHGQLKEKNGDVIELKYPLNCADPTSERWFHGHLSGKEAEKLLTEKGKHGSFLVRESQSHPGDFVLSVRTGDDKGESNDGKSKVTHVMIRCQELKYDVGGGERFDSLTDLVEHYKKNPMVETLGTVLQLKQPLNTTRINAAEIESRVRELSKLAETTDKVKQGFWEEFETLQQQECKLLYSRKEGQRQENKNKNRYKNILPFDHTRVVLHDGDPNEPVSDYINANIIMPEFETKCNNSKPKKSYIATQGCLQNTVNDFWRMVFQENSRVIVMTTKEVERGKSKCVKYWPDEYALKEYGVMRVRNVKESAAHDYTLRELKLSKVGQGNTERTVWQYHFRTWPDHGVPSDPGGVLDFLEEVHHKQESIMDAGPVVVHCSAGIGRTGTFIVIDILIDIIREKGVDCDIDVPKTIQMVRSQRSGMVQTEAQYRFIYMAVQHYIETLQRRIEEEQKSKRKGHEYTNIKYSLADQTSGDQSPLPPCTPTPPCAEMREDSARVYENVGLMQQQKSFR

[5] = tested on: Streptococcus sp. 'group A'; assay: Streptococcus pyogenes SK(-)GAS viability under kanamycin – luminescence, BacTiterGlo, confirmation, counter-screen for streptokinase expression inhibitor project, dose response (AID 1900); type: functional, organism-based
Streptococcus = assay: GAS UMAA2166 growth inhibition – luminescence, BacTiterGlo, counter-screen for streptokinase expression inhibitor project, dose response (AID 1915); type: functional, organism-based;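 note: potency for reduction of bacterial viability or growth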
[6] = biological target: T3, Low molecular weight phosphotyrosine protein phosphatase (Homo sapiens, UniProt P24666); type: functional; conditions: read-out: IC50_Mean;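 note: Dose-response confirmation assay measuring inhibition of LMPTP enzyme activity by fluorescence intensity read-out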
T3 sequence (P24666 whole entry): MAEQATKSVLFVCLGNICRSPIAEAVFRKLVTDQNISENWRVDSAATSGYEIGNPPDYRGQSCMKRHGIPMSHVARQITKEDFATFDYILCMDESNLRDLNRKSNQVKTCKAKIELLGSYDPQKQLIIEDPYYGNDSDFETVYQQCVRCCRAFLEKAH

[7] = (§1) Counterscreen for antagonists of the orexin 1 receptor (OX1R; HCRTR1): Fluorescence-based cell-based high throughput dose response assay to identify antagonists of the parental CHO cell line. [Related pubchem assays (depositor defined):AID434989, AID435008, AID463079, AID485270, AID492963, AID492964, AID492965, AID493232, AID504699, AID504701]; type: functional
Orexin receptor type 2 [8] = biological target: T4, Orexin receptor type 2 (Homo sapiens, UniProt O43614); assay: Counterscreen assay for antagonists of the orexin 1 receptor (OX1R; HCRTR1): Homogeneous Time Resolved Fluorescence (HTRF)-based cell-based dose response assay for antagonists of the orexin 2 receptor (OX2R; HCRTR2), run by assay provider.; type: functional
T4 sequence (O43614 whole entry): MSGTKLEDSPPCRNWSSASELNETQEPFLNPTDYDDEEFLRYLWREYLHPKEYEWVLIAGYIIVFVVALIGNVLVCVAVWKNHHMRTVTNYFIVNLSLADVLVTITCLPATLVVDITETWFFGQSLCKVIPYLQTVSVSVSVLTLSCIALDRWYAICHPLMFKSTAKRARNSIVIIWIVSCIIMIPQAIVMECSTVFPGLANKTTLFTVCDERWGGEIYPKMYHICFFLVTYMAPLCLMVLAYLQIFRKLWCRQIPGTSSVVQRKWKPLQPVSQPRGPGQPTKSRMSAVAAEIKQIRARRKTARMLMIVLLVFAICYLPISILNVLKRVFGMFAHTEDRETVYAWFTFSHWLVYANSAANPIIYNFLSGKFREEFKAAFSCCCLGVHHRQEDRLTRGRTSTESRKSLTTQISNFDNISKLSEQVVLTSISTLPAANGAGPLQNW

CHO-K1 = assay: as §1, with “Homogeneous time resolved fluorescence (HTRF)-based” for “Fluorescence-based”, “cell-based” for “cell-based high throughput”, “CHO-K1” for “CHO”; type: functional; conditions: Cricetulus griseus;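 note: potency for inhibition of ATP-stimulated IP1 production as antagonists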
[9] = A Cell Based Secondary Assay To Explore Cytotoxicity of Compounds that Sensitize Mycobacterium Tuberculosis to Beta-Lactam Antibiotics.; type: functional
Orexin receptor type 2 [10] = biological target: T4, Orexin receptor type 2; assay: Counterscreen assay for antagonists of the orexin 1 receptor (OX1R; HCRTR1): Fluorescence-based cell-based dose response assay for antagonists of the orexin 2 receptor (OX2R; HCRTR2), run by assay provider.; type: functional
[11] = biological target: T5, Orexin/Hypocretin receptor type 1 (Homo sapiens, UniProt O43613); assay: (§2) Fluorescence-based cell-based high throughput dose response assay for antagonists of the orexin 1 receptor (OX1R; HCRTR1). [Related pubchem assays (depositor defined):AID434989, AID435008, AID463079, AID485270, AID492963, AID492964, AID492965, AID493232, AID504717, AID504718]; type: functional
T5 sequence (O43613 whole entry): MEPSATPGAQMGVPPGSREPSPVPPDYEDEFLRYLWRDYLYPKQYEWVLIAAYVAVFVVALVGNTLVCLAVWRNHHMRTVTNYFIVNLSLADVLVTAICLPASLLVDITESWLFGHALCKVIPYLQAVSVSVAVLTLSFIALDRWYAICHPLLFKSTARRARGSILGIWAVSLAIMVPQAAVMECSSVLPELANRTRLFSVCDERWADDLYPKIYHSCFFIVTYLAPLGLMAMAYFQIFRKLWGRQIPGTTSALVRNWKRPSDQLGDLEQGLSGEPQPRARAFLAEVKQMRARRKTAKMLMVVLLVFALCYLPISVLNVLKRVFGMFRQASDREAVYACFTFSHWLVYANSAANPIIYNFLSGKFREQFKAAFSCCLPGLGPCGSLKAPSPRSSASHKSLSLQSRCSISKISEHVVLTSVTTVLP

[12] = biological target: T5, Orexin/Hypocretin receptor type 1; assay: as §2, with “Homogeneous Time Resolved Fluorescence (HTRF)-based” for “Fluorescence-based”; type: functional
[13] = biological target: T6, Aryl hydrocarbon receptor (Homo sapiens, UniProt P35869); conditions: Potency;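 note: confirmatory quantitative high-throughput screen measuring activation of the AhR signaling pathway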
T6 sequence (P35869 whole entry): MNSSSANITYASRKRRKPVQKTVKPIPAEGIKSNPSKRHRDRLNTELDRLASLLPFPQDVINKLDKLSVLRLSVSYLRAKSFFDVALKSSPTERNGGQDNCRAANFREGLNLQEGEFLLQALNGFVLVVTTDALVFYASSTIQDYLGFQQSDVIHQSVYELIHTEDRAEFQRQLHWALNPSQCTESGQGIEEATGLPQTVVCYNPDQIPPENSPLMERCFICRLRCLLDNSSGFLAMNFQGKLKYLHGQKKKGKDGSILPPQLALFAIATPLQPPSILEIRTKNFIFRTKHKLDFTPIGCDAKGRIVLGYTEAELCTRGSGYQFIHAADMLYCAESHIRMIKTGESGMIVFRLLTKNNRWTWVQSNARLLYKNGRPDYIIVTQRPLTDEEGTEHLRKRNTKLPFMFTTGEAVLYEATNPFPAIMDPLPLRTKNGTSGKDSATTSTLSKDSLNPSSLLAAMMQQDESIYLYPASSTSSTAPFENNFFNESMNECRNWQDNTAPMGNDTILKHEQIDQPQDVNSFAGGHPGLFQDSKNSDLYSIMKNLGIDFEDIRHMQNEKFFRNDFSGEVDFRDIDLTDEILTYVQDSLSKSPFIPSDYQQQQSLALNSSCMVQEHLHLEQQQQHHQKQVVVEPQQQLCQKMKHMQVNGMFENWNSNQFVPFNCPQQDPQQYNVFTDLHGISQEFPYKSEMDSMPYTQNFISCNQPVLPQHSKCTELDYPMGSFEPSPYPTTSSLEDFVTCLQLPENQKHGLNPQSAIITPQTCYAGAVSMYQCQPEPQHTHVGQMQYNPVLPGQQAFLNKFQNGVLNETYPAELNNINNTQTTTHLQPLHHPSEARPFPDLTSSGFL

Interleukin-8 = biological target: T7, Interleukin-8 (Homo sapiens, UniProt P10145); assay: Dose Response confirmation of uHTS small molecule hits for cystic fibrosis induced NFkb Inhibitors in a PAF-induced IL8 counterscreen.; type: functional; conditions: read-out: IC50_Mean
T7 sequence (P10145 whole entry): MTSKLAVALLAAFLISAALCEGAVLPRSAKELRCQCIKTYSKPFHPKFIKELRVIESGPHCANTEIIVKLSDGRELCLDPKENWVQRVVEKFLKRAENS

[14] = biological target: T8, Adenosylmethionine-8-amino-7-oxononanoate aminotransferase (Mycobacterium tuberculosis, UniProt P9WQ81); assay: Mycobacterium tuberculosis BioA enzyme inhibitor Measured in Biochemical System Using Plate Reader - 2163-02_Inhibitor_Dose_CherryPick_Activity.; type: functional, Mycobacterium tuberculosis UT205
T8 sequence (P9WQ81 whole entry): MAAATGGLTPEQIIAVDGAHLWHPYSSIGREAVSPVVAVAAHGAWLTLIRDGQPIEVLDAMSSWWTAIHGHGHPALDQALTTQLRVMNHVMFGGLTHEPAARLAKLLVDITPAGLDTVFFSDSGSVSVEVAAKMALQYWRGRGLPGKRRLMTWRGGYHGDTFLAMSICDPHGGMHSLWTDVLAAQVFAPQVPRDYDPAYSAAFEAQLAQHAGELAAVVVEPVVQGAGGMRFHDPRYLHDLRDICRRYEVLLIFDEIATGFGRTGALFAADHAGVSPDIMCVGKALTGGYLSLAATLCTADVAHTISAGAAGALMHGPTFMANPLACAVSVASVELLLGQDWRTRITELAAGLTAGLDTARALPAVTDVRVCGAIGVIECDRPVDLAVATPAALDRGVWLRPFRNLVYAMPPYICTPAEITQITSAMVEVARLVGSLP

Compound: COc1ccc(C(=O)Oc2cccc3cccnc23)cc1[N+](=O)[O-]
- AC50 [1]: 135 µM (active)

Compound: O=C(Nc1nnc(C2=COCCO2)o1)c1ccc(Cl)cc1
- AC50 [1]: 85.8 µM (active)

Compound: CN1CCC2(CC1)N=C(c1ccc(F)cc1)C(=S)N2
- IC50 [2]: 2.69 µM (active)
- IC50 [3]: 41.6 µM (inactive)
- IC50 [4]: 8.94 µM (active)

Compound: C=CC1=C(C(=O)O)N2C(=O)C(NC(=O)Cc3ccccc3)C2SC1 (stereo not given)
- EC50 [5]: 0.169 µM (active)
- IC50 [2]: 7.17 µM (active)
- IC50 [3]: 52.9 µM (inactive)
- IC50 [4]: 4.42 µM (active)
- EC50 (Streptococcus): 0.269 µM (active)
- IC50 [6]: 42.8 µM (inactive)

Compound: C=CCn1c(SCc2ccc(C(=O)Nc3nccs3)cc2)nnc1-c1ccc(C)c(Cl)c1
- IC50 [7]: 18.3 µM (inactive)
- IC50 (Orexin receptor type 2 [8]): > 50 µM (inactive)
- IC50 (CHO-K1): > 66.2 µM (inactive)
- CC50 [9]: 33 µM (active)
- IC50 (Orexin receptor type 2 [10]): 18 µM (inactive)
- IC50 [11]: 4.95 µM (active)
- IC50 [12]: 0.919 µM (active)

Compound: CCOc1ccccc1C(=O)NCCNC(=O)c1ccccc1OCC
- IC50 [7]: > 49.8 µM (inactive)
- IC50 (Orexin receptor type 2 [8]): 2.78 µM (active)
- IC50 (CHO-K1): > 66.2 µM (inactive)
- IC50 (Orexin receptor type 2 [10]): > 88.8 µM (inactive)
- IC50 [11]: 3.27 µM (active)
- IC50 [12]: 4.15 µM (active)

Compound: COc1ccc(OC)c(S(=O)(=O)NCC(c2ccco2)N2CCc3ccccc32)c1 (stereo not given)
- IC50 [7]: > 49.8 µM (inactive)
- IC50 (Orexin receptor type 2 [8]): > 50 µM (inactive)
- IC50 (CHO-K1): > 66.2 µM (inactive)
- IC50 (Orexin receptor type 2 [10]): 10.5 µM (inactive)
- IC50 [11]: 2 µM (active)
- IC50 [12]: 2.3 µM (active)

Compound: CCNc1nc(NCC)nc(SC)n1
- AC50 [13]: 0.447 µM (inconclusive)

Compound: C#CCN(C[C@@H]1[C@@H](OC(=O)NC2CC2)[C@@H](OC(=O)NC2CC2)Cn2c(=O)ccc(=O)n21)S(=O)(=O)c1ccc(C)cc1
- IC50 (Interleukin-8): 6.06 µM (active)

Compound: CN1c2ccc(-c3cccc(F)c3)cc2[C@H]2[C@H](CCN2C(=O)c2ccc3c(c2)OCO3)[C@H]1CO
- AC50 [14]: 0.075 µM (active)

Compound: CO[C@H]1CN(C)C(=O)c2ccc(NC(C)=O)cc2OC[C@@H](C)N(C(=O)C2CCCCC2)C[C@H]1C
- AC50 [14]: 6.6 µM (active)

Compound: Cc1c(NC(=O)c2cc3ccccc3o2)cccc1-n1cnnn1
- AC50 [14]: 6.18 µM (active)
